According to patent US20190092756A1, “CRYSTALLINE FORM A OF 2-[(2R)-2-METHYL-2-PYRROLIDYL]-1H-BENZIMIDAZOLE-7-CARBOXAMIDE DIHYDROCHLORIDE AND PREPARATION METHOD THEREOF” (Crystal Pharmatech Co., Ltd., priority 2016, published 2019):
≈ marks a conversion by molar mass, not a printed value. Read-outs that look alike come from different tables or passages of the source.

Experiments:
[1] = Particle size distribution (PSD) study, laser particle size analyzer; assay type: physicochemical; conditions: wet method, dispersion medium Isopar G
Text: The result of particle size distribution (PSD) in the present disclosure was acquired by laser particle size analyzer with S3500 model from Microtrac company. The Microtrac S3500 is equipped with a SDC (Sample Delivery Controller) sampling system. This experiment uses a wet method and the dispersion medium is Isopar G. The method and parameters of the laser particle size analyzer are as follows:
The particle size distributions (PSD) of crystalline form A and crystalline form 1 and form 2 in CN101821269B were studied.

[2] = Physical stability study (storage, XRPD before and after); assay type: physicochemical; conditions: 1 month
Method: Crystalline form A was stored at 25° C./60% RH and 40° C./75% RH for one month.

[3] = Mechanical stability study (grinding, XRPD before and after); assay type: physicochemical; conditions: ground for 5 minutes
Method: Crystalline form A of present disclosure was ground, and analyzed by XRPD before and after being ground for 5 minutes.

[4] = Solubility study in SGF, FeSSIF, FaSSIF and water; assay type: physicochemical
Method: Crystalline form A samples were dissolved into 1 mL of simulated gastric fluid (SGF), fed state simulated intestinal fluid (FeSSIF, pH 5.0), fasted state simulated intestinal fluid (FaSSIF, pH 6.5) and water to test the corresponding solubility.

[5] = cited from earlier work; for Solubility (in words): from CN101821270A and CN101821269B

SMILES: C[C@]1(c2nc3cccc(C(N)=O)c3[nH]2)CCCN1 [Form A, 2-[(2R)-2-methyl-2-pyrrolidinyl]-1H-benzimidazole-7-carboxamide]
- D10 [1]: 41.6 μm
- D50 [1]: 278.6 μm
- D90 [1]: 1118 μm
- MV (average based on volume) [1]: 407.2 μm
- Crystalline form change ([2]; 25° C./60% RH): No change
- Crystalline form change ([2]; 40° C./75% RH): No change
- XRPD pattern change before and after grinding [3]: no significant change
- Observation (dissolution) ([4]; 11.2 mg in 1 mL water): Completely
- Observation (dissolution) ([4]; 11.3 mg in 1 mL FeSSIF, pH 5.0): Completely
- Observation (dissolution) ([4]; 11.5 mg in 1 mL FaSSIF, pH 6.5): Completely
- Observation (dissolution) ([4]; 12.4 mg in 1 mL SGF): Completely
- Weight of sample dissolved ([4]; in 1 mL FaSSIF, pH 6.5): 11.5 mg
- Weight of sample dissolved ([4]; in 1 mL FeSSIF, pH 5.0): 11.3 mg
- Weight of sample dissolved ([4]; in 1 mL SGF): 12.4 mg
- Weight of sample dissolved ([4]; in 1 mL water): 11.2 mg
- Solubility relative to crystalline forms disclosed in the prior art ([4]; in SGF, FaSSIF, FeSSIF and water): at least 2 times
- solubility ([4]; thermodynamic from solid, in SGF, FaSSIF, FeSSIF and water): > 10000 µg/mL

SMILES: C[C@]1(c2nc3cccc(C(N)=O)c3[nH]2)CCCN1 [Form 1, 2-[(2R)-2-methyl-2-pyrrolidinyl]-1H-benzimidazole-7-carboxamide]
- D10 [1]: 11.54 μm
- D50 [1]: 18.89 μm
- D90 [1]: 31.97 μm
- MV (average based on volume) [1]: 20.89 μm
- Solubility (in words) ([5]; listed as Crystalline form 1): better solubility

SMILES: C[C@]1(c2nc3c(C(N)=O)cccc3[nH]2)CCCN1 [crystalline form B, 2-[(2R)-2-methyl-2-pyrrolidinyl]-1H-benzimidazole-7-carboxamide]
- solubility ([5]; after 24 hours in SGF, from CN105130961A): 6000 µg/mL (≈ 24.6 mM)

SMILES: C[C@]1(c2nc3cccc(C(N)=O)c3[nH]2)CCCN1 [Form 2, 2-[(2R)-2-methyl-2-pyrrolidinyl]-1H-benzimidazole-7-carboxamide]
- D10 [1]: 8.99 μm
- D50 [1]: 59.08 μm
- D90 [1]: 231.9 μm
- MV (average based on volume) [1]: 94.50 μm
- Solubility (in words) ([5]; listed as crystalline form 2): poor solubility
